Measurements: patent publication US20030186817A1, “SUBSTITUTED 2,4-DIAMINO-1,3,5-TRIAZINES, PROCESSES FOR THEIR PREPARATION AND THEIR USE AS HERBICIDES AND PLANT GROWTH REGULATORS” (priority 1998, published 2003)

Key:
Assay type in all cases: in vivo
[1] = tested on: Cyperus iria and Echinocloa crus-galli; experiment: Action on weeds in rice (paddy rice conditions, visual rating); details: dammed height of water 2-3 cm, about three weeks after application; further: test concentration or dose not given here
Text: Typical rice weeds such as Echinocloa crus galli and Cyperus iria are cultivated in a greenhouse under paddy rice conditions ([…] height of water: 2-3 cm). After the treatment, the test plants are set up in a greenhouse under optimum growth conditions and are maintained in this way under these conditions throughout the test period. About three weeks after application, evaluation is made by visual rating of the damage to the plants by comparison with untreated controls.

[2] = tested on: Stellaria media, Amaranthus retroflexus, Sinapis avreuse, Avena fatura, Lolium multiflorum and Setaria viridis; experiment: Pre-emergence action against weeds (greenhouse pot test, visual rating); details: application rate of 3.0 kg or less of active substance per hectare, trial period of 3 to 4 weeks
Summary of the method: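 Seeds in sandy loam were treated pre-emergence by soil-surface application of WP or EC formulations at various dosages in 600–800 L water/ha. After 3–4 weeks in a greenhouse, damage or reduced emergence was rated visually against untreated controls.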

[3] = tested on: Stellaria media, Amaranthus retroflexus, Sinapis avreuse, Avena fatura, Lolium multiflorum and Setaria viridis; experiment: Post-emergence action against weeds (greenhouse pot test, visual rating); details: three-leaf stage, application rate of 3.0 kg or less of active substance per hectare, 3 to 4 weeks in greenhouse
Summary of the method: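 Greenhouse pot plants sown in sandy loam were sprayed at the three-leaf stage, 2–3 weeks after sowing. Compounds were formulated as wettable powders or emulsion concentrates and applied onto green parts at various dosages. Action was rated visually against untreated controls after 3–4 weeks.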

CCC(CCOc1cccc(Cl)c1)Nc1nc(N)nc(C(F)(F)C(F)F)n1 (stereo not drawn) [Example 347]
herbicidal activity against rice weeds (visual rating of damage) [1]: very good herbicidal activity
herbicidal activity pre-emergence (damage to the plants or negative effect on emergence, rated visually) [2]: good and in most cases very good herbicidal activity
herbicidal activity post-emergence (rated visually) [3]: good and in most cases very good herbicidal activity

CC(CCOc1cc(F)cc(F)c1)Nc1nc(N)nc(C(C)(C)F)n1 (stereo not drawn) [Example 207]
herbicidal activity against rice weeds (visual rating of damage) [1]: very good herbicidal activity
herbicidal activity pre-emergence (damage to the plants or negative effect on emergence, rated visually) [2]: good and in most cases very good herbicidal activity
herbicidal activity post-emergence (rated visually) [3]: good and in most cases very good herbicidal activity

Cc1ccc(COCC(C)Nc2nc(N)nc(C(C)(C)F)n2)cc1 (stereo not drawn) [Example 183]
herbicidal activity against rice weeds (visual rating of damage) [1]: very good herbicidal activity
herbicidal activity pre-emergence (damage to the plants or negative effect on emergence, rated visually) [2]: good and in most cases very good herbicidal activity
herbicidal activity post-emergence (rated visually) [3]: good and in most cases very good herbicidal activity

CC(COCc1ccccc1)Nc1nc(N)nc(C(C)(C)F)n1 (stereo not drawn) [Example 201]
herbicidal activity against rice weeds (visual rating of damage) [1]: very good herbicidal activity
herbicidal activity pre-emergence (damage to the plants or negative effect on emergence, rated visually) [2]: good and in most cases very good herbicidal activity
herbicidal activity post-emergence (rated visually) [3]: good and in most cases very good herbicidal activity

COc1cccc(OCCC(C)Nc2nc(N)nc(C(F)(F)C(F)F)n2)c1 (stereo not drawn) [Example 311]
herbicidal activity against rice weeds (visual rating of damage) [1]: very good herbicidal activity
herbicidal activity pre-emergence (damage to the plants or negative effect on emergence, rated visually) [2]: good and in most cases very good herbicidal activity
herbicidal activity post-emergence (rated visually) [3]: good and in most cases very good herbicidal activity

CCC(CCOc1cccc(OC)c1)Nc1nc(N)nc(C(C)(C)F)n1 (stereo not drawn) [Example 384]
herbicidal activity against rice weeds (visual rating of damage) [1]: very good herbicidal activity
herbicidal activity pre-emergence (damage to the plants or negative effect on emergence, rated visually) [2]: good and in most cases very good herbicidal activity
herbicidal activity post-emergence (rated visually) [3]: good and in most cases very good herbicidal activity

CCC(CCOc1cccc(C)c1)Nc1nc(N)nc(C(C)(C)F)n1 (stereo not drawn) [Example 245]
herbicidal activity against rice weeds (visual rating of damage) [1]: very good herbicidal activity
herbicidal activity pre-emergence (damage to the plants or negative effect on emergence, rated visually) [2]: good and in most cases very good herbicidal activity
herbicidal activity post-emergence (rated visually) [3]: good and in most cases very good herbicidal activity

CCC(CCOc1cccc(OC)c1)Nc1nc(N)nc(C(F)(F)C(F)F)n1 (stereo not drawn) [Example 228]
herbicidal activity against rice weeds (visual rating of damage) [1]: very good herbicidal activity
herbicidal activity pre-emergence (damage to the plants or negative effect on emergence, rated visually) [2]: good and in most cases very good herbicidal activity
herbicidal activity post-emergence (rated visually) [3]: good and in most cases very good herbicidal activity

CC(CCOc1ccccc1)Nc1nc(N)nc(C(C)(C)F)n1 (stereo not drawn) [Example 368, 2-amino-4-fluoroisopropyl-6-[N-(1-methyl-3-phenoxyprop-1-yl)amino]-1,3,5-triazine]
herbicidal activity against rice weeds (visual rating of damage) [1]: very good herbicidal activity
herbicidal activity pre-emergence (damage to the plants or negative effect on emergence, rated visually) [2]: good and in most cases very good herbicidal activity
herbicidal activity post-emergence (rated visually) [3]: good and in most cases very good herbicidal activity

CC(CCOc1cccc(Cl)c1)Nc1nc(N)nc(C(C)(C)F)n1 (stereo not drawn) [Example 299]
herbicidal activity against rice weeds (visual rating of damage) [1]: very good herbicidal activity
herbicidal activity pre-emergence (damage to the plants or negative effect on emergence, rated visually) [2]: good and in most cases very good herbicidal activity
herbicidal activity post-emergence (rated visually) [3]: good and in most cases very good herbicidal activity

CCC(CCOc1cccc(Cl)c1)Nc1nc(N)nc(C(C)F)n1 (stereo not drawn) [Example 220]
herbicidal activity against rice weeds (visual rating of damage) [1]: very good herbicidal activity
herbicidal activity pre-emergence (damage to the plants or negative effect on emergence, rated visually) [2]: good and in most cases very good herbicidal activity
herbicidal activity post-emergence (rated visually) [3]: good and in most cases very good herbicidal activity

CCC(CCOc1ccccc1)Nc1nc(N)nc(C(C)C)n1 (stereo not drawn) [Example 231]
herbicidal activity against rice weeds (visual rating of damage) [1]: very good herbicidal activity
herbicidal activity pre-emergence (damage to the plants or negative effect on emergence, rated visually) [2]: good and in most cases very good herbicidal activity
herbicidal activity post-emergence (rated visually) [3]: good and in most cases very good herbicidal activity

CCC(CCOc1cc(F)cc(F)c1)Nc1nc(N)nc(C(C)(C)F)n1 (stereo not drawn) [Example 370]
herbicidal activity against rice weeds (visual rating of damage) [1]: very good herbicidal activity
herbicidal activity pre-emergence (damage to the plants or negative effect on emergence, rated visually) [2]: good and in most cases very good herbicidal activity
herbicidal activity post-emergence (rated visually) [3]: good and in most cases very good herbicidal activity

CCC(CCOc1cccc(F)c1)Nc1nc(N)nc(C(C)C)n1 (stereo not drawn) [Example 381]
herbicidal activity against rice weeds (visual rating of damage) [1]: very good herbicidal activity
herbicidal activity pre-emergence (damage to the plants or negative effect on emergence, rated visually) [2]: good and in most cases very good herbicidal activity
herbicidal activity post-emergence (rated visually) [3]: good and in most cases very good herbicidal activity

CCC(CCOc1cccc(OC)c1)Nc1nc(N)nc(C(C)C)n1 (stereo not drawn) [Example 376]
herbicidal activity against rice weeds (visual rating of damage) [1]: very good herbicidal activity
herbicidal activity pre-emergence (damage to the plants or negative effect on emergence, rated visually) [2]: good and in most cases very good herbicidal activity
herbicidal activity post-emergence (rated visually) [3]: good and in most cases very good herbicidal activity

Cc1ccccc1C(=O)OCC(C)Nc1nc(N)nc(C(C)C)n1 (stereo not drawn) [Example 41]
herbicidal activity against rice weeds (visual rating of damage) [1]: very good herbicidal activity
herbicidal activity pre-emergence (damage to the plants or negative effect on emergence, rated visually) [2]: good and in most cases very good herbicidal activity
herbicidal activity post-emergence (rated visually) [3]: good and in most cases very good herbicidal activity

CCC(CCOc1ccccc1)Nc1nc(N)nc(C(C)(C)F)n1 (stereo not drawn) [Example 369]
herbicidal activity against rice weeds (visual rating of damage) [1]: very good herbicidal activity
herbicidal activity pre-emergence (damage to the plants or negative effect on emergence, rated visually) [2]: good and in most cases very good herbicidal activity
herbicidal activity post-emergence (rated visually) [3]: good and in most cases very good herbicidal activity

COc1cccc(OCCC(C)Nc2nc(N)nc(C(C)C)n2)c1 (stereo not drawn) [Example 213]
herbicidal activity against rice weeds (visual rating of damage) [1]: very good herbicidal activity
herbicidal activity pre-emergence (damage to the plants or negative effect on emergence, rated visually) [2]: good and in most cases very good herbicidal activity
herbicidal activity post-emergence (rated visually) [3]: good and in most cases very good herbicidal activity

COc1cccc(OCCC(C)Nc2nc(N)nc(C(C)(C)F)n2)c1 (stereo not drawn) [Example 303]
herbicidal activity against rice weeds (visual rating of damage) [1]: very good herbicidal activity
herbicidal activity pre-emergence (damage to the plants or negative effect on emergence, rated visually) [2]: good and in most cases very good herbicidal activity
herbicidal activity post-emergence (rated visually) [3]: good and in most cases very good herbicidal activity

Cc1cccc(OCCC(C)Nc2nc(N)nc(C(F)(F)C(F)F)n2)c1 (stereo not drawn) [Example 326]
herbicidal activity against rice weeds (visual rating of damage) [1]: very good herbicidal activity
herbicidal activity pre-emergence (damage to the plants or negative effect on emergence, rated visually) [2]: good and in most cases very good herbicidal activity
herbicidal activity post-emergence (rated visually) [3]: good and in most cases very good herbicidal activity

CCC(COC(=O)c1ccccc1C)Nc1nc(N)nc(C(C)C)n1 (stereo not drawn) [Example 42]
herbicidal activity against rice weeds (visual rating of damage) [1]: very good herbicidal activity
herbicidal activity pre-emergence (damage to the plants or negative effect on emergence, rated visually) [2]: good and in most cases very good herbicidal activity
herbicidal activity post-emergence (rated visually) [3]: good and in most cases very good herbicidal activity

CCC(CCOc1cccc(Cl)c1)Nc1nc(N)nc(C(C)(C)F)n1 (stereo not drawn) [Example 380]
herbicidal activity against rice weeds (visual rating of damage) [1]: very good herbicidal activity
herbicidal activity pre-emergence (damage to the plants or negative effect on emergence, rated visually) [2]: good and in most cases very good herbicidal activity
herbicidal activity post-emergence (rated visually) [3]: good and in most cases very good herbicidal activity
